Results published in patent US11072588B2, “Barbituric acid derivatives comprising cationic and lipophilic groups” (UNIVERSITETET I TROMSØ—NORGES ARKTISKE UNIVERSITET, priority 2017, dated 2021).
In brackets after ≈: the same amount, converted by molar mass.

Experiments:
[1] = tested on: Corynebacterium glutamicum ATCC 13032; experiment: MIC assay, antibiotic susceptible reference strain; assay type: cell-based; conditions: Corynebacterium glutamicum, ATCC13032, read-out: Antimicrobial activity (MIC) C. g
Method: (§1) Working solutions of the test derivatives were prepared with up to 100% DMSO and stored at −20° C. If necessary, the solutions were heated to 40-80° C. before testing to facilitate complete dissolution. Double-distilled water was used in all dilutions prepared. […] A microdilution susceptibility test was used for MIC determination according to Clinical and Laboratory Standards Institute, “Methods for Dilution Antimicrobial Sisceptibility Tests for Bacteria That Graw Aerobically”, Approved Standard M07-A9, edition 2012, with modifications as described by Igumnova et al (Bioorg Med Chem, 2016, 24 (22), 5884-5894).
(§2) Briefly, the bacterial inoculum was adjusted to approximately 2.5-3×10^4 cells/mL in Mueller-Hinton broth (MHB, Difco Laboratories, USA), and incubated in a ratio of 1:1 with test derivatives in polystyrene 96-well flat-bottom microplates (NUNC, Roskilde, Denmark). Positive growth control (without test derivatives) and negative control (without bacteria) were included. The reference antibiotic was oxytetracycline hydrochloride (Sigma Aldrich, Saint Louis, Mo., USA). The microplates were incubated in an EnVision microplate reader (Perkin-Elmer, Turku, Finland) placed in an incubator set to 35° C. for 48 h. The MIC value was defined as the lowest concentration of derivative resulting in no bacterial growth as determined by OD600 measurement. All derivatives were tested in three parallels.

[2] = tested on: Escherichia coli ATCC 25922; experiment: MIC assay, antibiotic susceptible reference strain; assay type: cell-based; conditions: Escherichia coli, ATCC25922, read-out: Antimicrobial activity (MIC) E. c
Method: as §1, §2

[3] = tested on: Pseudomonas aeruginosa PA01, DSM 19880 (ATCC 15692); experiment: MIC assay, antibiotic susceptible reference strain; assay type: cell-based; conditions: Pseudomonas aeruginosa, read-out: Antimicrobial activity (MIC) P. a
Method: as §1, §2

[4] = tested on: Staphylococcus aureus ATCC 9144; experiment: MIC assay, antibiotic susceptible reference strain; assay type: cell-based; conditions: Staphylococcus aureus, ATCC9144, read-out: Antimicrobial activity (MIC) S. a
Method: as §1, §2

[5] = Determination of haemolytic activity; assay type: cell-based; conditions: human red blood cells (washed, from heparinized fresh blood); human RBCs, 1 h, 37° C.; read-out: RBC: haemolytic activity against human RBCs (EC50)
Method: Hemolysis was determined using a heparinized fraction (1000 IU/mL) of freshly drawn blood. Blood collected in EDTA containing test tubes (Vacutest®, KIMA, Arzergrande, Italy) was used for determination of the hematocrit (hct). The heparinized blood was washed 3× with pre-warmed PBS and adjusted to a final hct of 4%. Derivatives in DMSO (50 mM) were added to a 96-well polypropylene V-bottom plate (NUNC, Fisher Scientific, Oslo, Norway) and serially diluted. The test concentration range was 500-4 μM with DMSO contents ≤1%. A solution of 1% triton X-100 was used as positive control for 100% hemolysis. As negative control a solution of 1% DMSO in PBS buffer was included. No signs of DMSO toxicity were detected. RBCs (1% v/v final concentration) were added to the well plate and incubated at 37° C. and 800 rpm for 1 h. After centrifugation (5 min, 3000 g), 100 μL of each well were transferred to a 96-well flat bottom plate and absorbance was measured at 545 nm with a microplate reader (VersaMax™, Molecular Devices, Sunnyvale, Calif., USA). The percentage of hemolysis was calculated as the ratio of the absorbance in the derivative-treated and surfactant treated samples, corrected for the PBS background. Three independent experiments were performed and EC50 values are presented as averages.

[6] = tested on: P. aeruginosa 50692172; experiment: MIC, multi-resistant clinical isolate; assay type: cell-based, Pseudomonas aeruginosa; conditions: for MIC: Pseudomonas aeruginosa, read-out: Antimicrobial activity (MIC); for selectivity index (EC50/MIC): RBC EC50 / MIC
[7] = tested on: P. aeruginosa K34-73; experiment: MIC, multi-resistant clinical isolate; assay type: cell-based, Pseudomonas aeruginosa; conditions: for MIC: Pseudomonas aeruginosa, K3473, read-out: Antimicrobial activity (MIC); for selectivity index (EC50/MIC): RBC EC50 / MIC, P. aeruginosa K34-73
[8] = tested on: K. pneumoniae 50531633; experiment: MIC, multi-resistant clinical isolate; assay type: cell-based, Klebsiella pneumoniae; conditions: K. pneumoniae 50531633, resistant to colistin; for MIC: Klebsiella pneumoniae, 24 h, read-out: Antimicrobial activity (MIC); for selectivity index (EC50/MIC): RBC EC50 / MIC
Method: as §1, §2
(§3) The MIC was determined as explained above with some exceptions; working solutions of test derivatives were prepared from concentrated DMSO stocks stored at room temperature, the density of the bacterial inoculum was increased 40× to 1-1.2×10^6 cells/mL, enterococci were incubated in Brain Heart Infusion broth (BHIB, Difco Laboratories, USA), the microplates were incubated for 24 h, and the derivatives were tested in four parallels.

[9] = tested on: K. pneumoniae 50667959; experiment: MIC, multi-resistant clinical isolate; assay type: cell-based, Klebsiella pneumoniae; conditions: for MIC: Klebsiella pneumoniae, read-out: Antimicrobial activity (MIC); for selectivity index (EC50/MIC): RBC EC50 / MIC
Method: as §1, §2, §3

[10] = tested on: K. pneumoniae K47-25; experiment: MIC, multi-resistant clinical isolate; assay type: cell-based, Klebsiella pneumoniae; conditions: for MIC: Klebsiella pneumoniae, K4725, 24 h, read-out: Antimicrobial activity (MIC); for selectivity index (EC50/MIC): RBC EC50 / MIC, K. pneumoniae K47-25, resistant to colistin
Method: as §1, §2, §3

[11] = tested on: A. baumanii K12-21; experiment: MIC, multi-resistant clinical isolate; assay type: cell-based, Acinetobacter baumannii; conditions: for MIC: Acinetobacter baumannii, K1221, read-out: Antimicrobial activity (MIC); for selectivity index (EC50/MIC): RBC EC50 / MIC
Method: as §1, §2, §3

[12] = tested on: A. baumanii K44-35; experiment: MIC, multi-resistant clinical isolate; assay type: cell-based, Acinetobacter baumannii; conditions: for MIC: Acinetobacter baumannii, K4435, read-out: Antimicrobial activity (MIC); for selectivity index (EC50/MIC): RBC EC50 / MIC
Method: as §1, §2, §3

[13] = tested on: A. baumanii K47-42; experiment: MIC, multi-resistant clinical isolate; assay type: cell-based, Acinetobacter baumannii; conditions: for MIC: Acinetobacter baumannii, K4742, read-out: Antimicrobial activity (MIC); for selectivity index (EC50/MIC): RBC EC50 / MIC
Method: as §1, §2, §3

[14] = tested on: A. baumanii K55-13; experiment: MIC, multi-resistant clinical isolate; assay type: cell-based, Acinetobacter baumannii; conditions: for MIC: Acinetobacter baumannii, K5513, read-out: Antimicrobial activity (MIC); for selectivity index (EC50/MIC): RBC EC50 / MIC
Method: as §1, §2, §3

[15] = tested on: A. baumanii K63-58; experiment: MIC, multi-resistant clinical isolate; assay type: cell-based, Acinetobacter baumannii; conditions: A. baumanii K63-58, resistant to colistin; for MIC: Acinetobacter baumannii, K6358, 24 h, read-out: Antimicrobial activity (MIC); for selectivity index (EC50/MIC): RBC EC50 / MIC
Method: as §1, §2, §3

[16] = tested on: antibiotic susceptible Gram-positive and Gram-negative reference strains; experiment: MIC assay, ranges over the reference strains; assay type: cell-based; conditions: range over S. aureus, C. glutamicum, E. coli, P. aeruginosa reference strains; read-out: MIC values against all the reference strains
Method: as §1, §2

[17] = tested on: K. pneumoniae 50625602; experiment: MIC, multi-resistant clinical isolate; assay type: cell-based, Klebsiella pneumoniae
Method: as §1, §2, §3

Row | SMILES | MIC [1] [µg/mL] | MIC [2] [µg/mL] | MIC [3] [µg/mL] | MIC [4] [µg/mL] | EC50 at 1 h [5] [µg/mL] | MIC [6] [µg/mL] | selectivity index (EC50/MIC) [6] | MIC [7] [µg/mL] | selectivity index (EC50/MIC) [7] | MIC [8] [µg/mL] | selectivity index (EC50/MIC) [8] | MIC [9] [µg/mL] | selectivity index (EC50/MIC) [9] | MIC [10] [µg/mL] | selectivity index (EC50/MIC) [10] | MIC [11] [µg/mL] | selectivity index (EC50/MIC) [11] | MIC [12] [µg/mL] | selectivity index (EC50/MIC) [12] | MIC [13] [µg/mL] | further results
1 | NCCCCN1C(=O)N(CCCCN)C(=O)C(Cc2cc(Br)cc(Br)c2)(Cc2cc(Br)cc(Br)c2)C1=O [7(ii)] | 1 (≈ 1.31 µM) | 4 (≈ 5.22 µM) | 8 (≈ 10.4 µM) | 4 (≈ 5.22 µM) | 83 (≈ 108 µM) | 16 (≈ 20.9 µM) | (5) | 16 (≈ 20.9 µM) | (5) | 8 (≈ 10.4 µM) | (10) | 16 (≈ 20.9 µM) | (5) | 16 (≈ 20.9 µM) | (5) | 16 (≈ 20.9 µM) | (5) | 16 (≈ 20.9 µM) | (5) | 16 (≈ 20.9 µM) | selectivity index (EC50/MIC) [13]: (5); MIC [14]: 16 µg/mL (≈ 20.9 µM); selectivity index (EC50/MIC) [14]: (5); MIC [15]: 16 µg/mL (≈ 20.9 µM); selectivity index (EC50/MIC) [15]: (5); MIC [16]: 1 to 8 µg/mL (≈ 1.31 to 10.4 µM)
2 | CC(C)(C)c1cc(CC2(Cc3cc(C(C)(C)C)cc(C(C)(C)C)c3)C(=O)N(CCCCN)C(=O)N(CCCCN)C2=O)cc(C(C)(C)C)c1 [7(iii), 1,3-bis(4-aminobutyl)-5,5-bis(3,5-di-tert-butylbenzyl)-pyrimidin-2,4,6(1H,3H,5H)-trione] | 0.25 (≈ 0.37 µM) | 2 (≈ 2.96 µM) | 4 (≈ 5.93 µM) | 1 (≈ 1.48 µM) | < 4 | 8 (≈ 11.9 µM) | (<0.5) | 16 (≈ 23.7 µM) | (<2.5) | 8 (≈ 11.9 µM) | (<0.5) | 8 (≈ 11.9 µM) | (<0.5) | 16 (≈ 23.7 µM) | (<2.5) | 4 (≈ 5.93 µM) | (<1) | 4 (≈ 5.93 µM) | (<1) | 4 (≈ 5.93 µM) | MIC ([17]; Klebsiella pneumoniae, read-out: Antimicrobial activity (MIC)): 8 µg/mL (≈ 11.9 µM); selectivity index (EC50/MIC) ([17]; RBC EC50 / MIC): (<0.5); selectivity index (EC50/MIC) [13]: (<1); MIC [14]: 4 µg/mL (≈ 5.93 µM); selectivity index (EC50/MIC) [14]: (<1); MIC [15]: 4 µg/mL (≈ 5.93 µM); selectivity index (EC50/MIC) [15]: (<1); MIC [16]: 0.25 to 4 µg/mL (≈ 0.37 to 5.93 µM)
